Assay results as given in patent US12441691B2 (Cytokinetics, Inc., priority 2020, dated 2025).

These compounds were tested on rabbit skeletal myofibrils (fast skeletal myofibrils) (assay: Activation of fast skeletal myofibrils (PUMA assay, AC1.4)). Conditions: calcium at pCa25, AC1.4 = concentration at which the compound increased the enzymatic activity.
Assay type: biochemical
How it was run: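 Detergent-washed rabbit psoas myofibrils (~90% fast fibers), calcium set to give 25% of maximal rate (pCa25). ATPase followed by pyruvate kinase/lactate dehydrogenase-coupled NADH oxidation, absorbance at 340 nm. PM12 buffer: 12 mM PIPES, 2 mM MgCl2, 1 mM DTT, pH 6.8.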

Row | Structure (SMILES) | AC1.4 [µM]
1 | CC[C@H](C)[C@H]1C(=O)Nc2ccccc2CN1C(=O)c1cnccn1 [Compound 108, (S)-3-((S)-sec-butyl)-4-(pyrazine-2-carbonyl)-1,3,4,5-tetrahydro-2H-benzo[e][1,4]diazepin-2-one] | 0.19
2 | CC[C@H](C)[C@H]1C(=O)Nc2ccccc2CN1C(=O)c1cnc(C(N)=O)cn1 [Compound 109, 5-((S)-3-((S)-sec-butyl)-2-oxo-2,3,4,5-tetrahydro-1H-benzo[e][1,4]diazepine-4-carbonyl)pyrazine-2-carboxamide] | 0.17
3 | CC[C@H](C)[C@H]1C(=O)Nc2ccccc2CN1C(=O)CS(N)(=O)=O [Compound 110, 2-((S)-3-((S)-sec-butyl)-2-oxo-1,2,3,5-tetrahydro-4H-benzo[e][1,4]diazepin-4-yl)-2-oxoethane-1-sulfonamide] | 1.36
4 | CC[C@H](C)[C@H]1C(=O)Nc2ccccc2CN1C(=O)CS(C)(=O)=O [Compound 111, (S)-3-((S)-sec-butyl)-4-(2-(methylsulfonyl)acetyl)-1,3,4,5-tetrahydro-2H-benzo[e][1,4]diazepin-2-one] | 4.90
5 | CC[C@H](C)[C@H]1C(=O)Nc2ccccc2CN1/C(N)=N/S(C)(=O)=O [Compound 112, (S,E)-3-((S)-sec-butyl)-N′-(methylsulfonyl)-2-oxo-1,2,3,5-tetrahydro-4H-benzo[e][1,4]diazepine-4-carboximidamide] | 0.81
6 | CC[C@H](C)[C@H]1C(=O)Nc2ccccc2CN1/C(N)=N/C(C)=O [Compound 113, N-((E)-amino((S)-3-((S)-sec-butyl)-2-oxo-1,2,3,5-tetrahydro-2H-benzo[e][1,4]diazepin-4-yl)methylene)acetamide] | 0.15
7 | CC[C@H](C)[C@H]1C(=O)Nc2ccccc2CN1c1ncccn1 [Compound 114, (S)-3-((S)-sec-butyl)-4-(pyrimidin-2-yl)-1,3,4,5-tetrahydro-2H-benzo[e][1,4]diazepin-2-one] | 0.05
8 | CC[C@H](C)[C@H]1C(=O)Nc2ccccc2CN1c1cc(=O)n(C)cn1 [Compound 115, (S)-3-((S)-sec-butyl)-4-(1-methyl-6-oxo-1,6-dihydropyrimidin-4-yl)-1,3,4,5-tetrahydro-2H-benzo[e][1,4]diazepin-2-one] | 0.08
9 | CC[C@H](C)[C@H]1C(=O)Nc2ccccc2CN1c1nc(OC)cc(OC)n1 [Compound 116, (S)-3-((S)-sec-butyl)-4-(4,6-dimethoxypyrimidin-2-yl)-1,3,4,5-tetrahydro-2H-benzo[e][1,4]diazepin-2-one] | 0.05
10 | CC[C@H](C)[C@H]1C(=O)Nc2ccccc2CN1c1nc(N)nn1C [Compound 117, (S)-4-(3-amino-1-methyl-1H-1,2,4-triazol-5-yl)-3-((S)-sec-butyl)-1,3,4,5-tetrahydro-2H-benzo[e][1,4]diazepin-2-one] | 0.07
11 | CC[C@H](C)[C@H]1C(=O)Nc2ccccc2CN1c1nc(N)n(C)n1 [Compound 118, (S)-4-(5-amino-1-methyl-1H-1,2,4-triazol-3-yl)-3-((S)-sec-butyl)-1,3,4,5-tetrahydro-2H-benzo[e][1,4]diazepin-2-one] | 0.08
12 | CC[C@H](C)[C@H]1C(=O)Nc2ccccc2CN1S(=O)(=O)CCOC [Compound 119, (S)-3-((S)-sec-butyl)-4-((2-methoxyethyl)sulfonyl)-1,3,4,5-tetrahydro-2H-benzo[e][1,4]diazepin-2-one] | 2.44
13 | CC[C@H](C)[C@H]1C(=O)Nc2ccccc2CN1S(=O)(=O)NC [Compound 120, (S)-3-((S)-sec-butyl)-N-methyl-2-oxo-1,2,3,5-tetrahydro-4H-benzo[e][1,4]diazepine-4-sulfonamide] | 0.12
14 | NC(=O)N1Cc2ccccc2NC(=O)[C@@H]1C1CCC1 [Compound 121, (S)-3-cyclobutyl-2-oxo-1,2,3,5-tetrahydro-4H-benzo[e][1,4]diazepine-4-carboxamide] | 4.80
15 | Cn1cc(C(=O)N2Cc3ccccc3NC(=O)[C@@H]2C2CCC2)cn1 [Compound 122, (S)-3-cyclobutyl-4-(1-methyl-1H-pyrazole-4-carbonyl)-1,3,4,5-tetrahydro-2H-benzo[e][1,4]diazepin-2-one] | 3.16
16 | NC(=O)N1Cc2ccccc2NC(=O)[C@@H]1C1CCCC1 [Compound 123, (S)-3-cyclopentyl-2-oxo-1,2,3,5-tetrahydro-4H-benzo[e][1,4]diazepine-4-carboxamide] | 0.35
17 | O=C1Nc2ccccc2CN(C(=O)CCO)[C@H]1C1CCCCC1 [Compound 124, (S)-3-cyclohexyl-4-(3-hydroxypropanoyl)-1,3,4,5-tetrahydro-2H-benzo[e][1,4]diazepin-2-one] | 0.38
18 | NC(=O)c1ccc(C(=O)N2Cc3ccccc3NC(=O)[C@@H]2C2CCCCC2)cc1 [Compound 125, (S)-4-(3-cyclohexyl-2-oxo-2,3,4,5-tetrahydro-1H-benzo[e][1,4]diazepine-4-carbonyl)benzamide] | 0.29

Row | Structure (SMILES) | AC1.4 [µM]
19 | O=C1Nc2ccccc2CN(C(=O)c2ccco2)[C@H]1C1CCCCC1 [Compound 128, (S)-3-cyclohexyl-4-(furan-2-carbonyl)-1,3,4,5-tetrahydro-2H-benzo[e][1,4]diazepin-2-one] | 0.06
20 | CCC(CC)[C@H]1C(=O)Nc2ccccc2CN1C(N)=O [Compound 129, (S)-2-oxo-3-(pentan-3-yl)-1,2,3,5-tetrahydro-4H-benzo[e][1,4]diazepine-4-carboxamide] | 0.10
21 | CC[C@H](C)[C@H]1C(=O)Nc2ccccc2CN1c1c(NC)c(=O)c1=O [Compound 130, 3-((S)-3-((S)-sec-butyl)-2-oxo-1,2,3,5-tetrahydro-4H-benzo[e][1,4]diazepin-4-yl)-4-(methylamino)cyclobut-3-ene-1,2-dione] | 0.06
22 | CC[C@H](C)[C@H]1C(=O)Nc2ccccc2CN1c1c(N(C)C)c(=O)c1=O [Compound 131, 3-((S)-3-((S)-sec-butyl)-2-oxo-1,2,3,5-tetrahydro-4H-benzo[e][1,4]diazepin-4-yl)-4-(dimethylamino)cyclobut-3-ene-1,2-dione] | 0.02
23 | CC[C@H](C)[C@H]1C(=O)Nc2ccccc2CN1c1c(NCCO)c(=O)c1=O [Compound 132, 3-((S)-3-((S)-sec-butyl)-2-oxo-1,2,3,5-tetrahydro-4H-benzo[e][1,4]diazepin-4-yl)-4-((2-hydroxyethyl)amino)cyclobut-3-ene-1,2-dione] | 0.07
24 | CC[C@H](C)[C@H]1C(=O)Nc2ccccc2CN1C(=O)N(C)CCN(C)C [Compound 133, (S)-3-((S)-sec-butyl)-N-(2-(dimethylamino)ethyl)-N-methyl-2-oxo-1,2,3,5-tetrahydro-4H-benzo[e][1,4]diazepine-4-carboxamide] | 0.48
25 | CC[C@H](C)[C@H]1C(=O)Nc2ccccc2CN1C(=O)N1CCC(O)CC1 [Compound 134, (S)-3-((S)-sec-butyl)-4-(4-hydroxypiperidine-1-carbonyl)-1,3,4,5-tetrahydro-2H-benzo[e][1,4]diazepin-2-one] | 0.71
26 | CC[C@H](C)[C@H]1C(=O)Nc2ccccc2CN1C(=O)N(CCO)C(C)C [Compound 135, (S)-3-((S)-sec-butyl)-N-(2-hydroxyethyl)-N-isopropyl-2-oxo-1,2,3,5-tetrahydro-4H-benzo[e][1,4]diazepine-4-carboxamide] | 3.72
27 | CC[C@H](C)[C@H]1C(=O)Nc2ccccc2CN1C(=O)N1C[C@@H](O)[C@@H](O)C1 [Compound 137, (S)-3-((S)-sec-butyl)-4-((3R,4S)-3,4-dihydroxypyrrolidine-1-carbonyl)-1,3,4,5-tetrahydro-2H-benzo[e][1,4]diazepin-2-one] | 3.35
28 | CC[C@H](C)[C@H]1C(=O)Nc2ccccc2CN1C(=O)NC1CN(C)C1 [Compound 138, (S)-3-((S)-sec-butyl)-N-(1-methylazetidin-3-yl)-2-oxo-1,2,3,5-tetrahydro-4H-benzo[e][1,4]diazepine-4-carboxamide] | 0.52
29 | CC[C@H](C)[C@H]1C(=O)Nc2ccccc2CN1C(=O)NC1CN(C2COC2)C1 [Compound 139, (S)-3-((S)-sec-butyl)-N-(1-(oxetan-3-yl)azetidin-3-yl)-2-oxo-1,2,3,5-tetrahydro-4H-benzo[e][1,4]diazepine-4-carboxamide] | 0.93
30 | CC[C@H](C)[C@H]1C(=O)Nc2ccccc2CN1C(=O)N1C[C@@H](O)[C@H](O)C1 [Compound 140, (S)-3-((S)-sec-butyl)-4-((3R,4R)-3,4-dihydroxypyrrolidine-1-carbonyl)-1,3,4,5-tetrahydro-2H-benzo[e][1,4]diazepin-2-one] | 4.74
31 | CC[C@H](C)[C@H]1C(=O)Nc2ccccc2CN1C(=O)N[C@H]1CCN(CCO)C1 [Compound 141, (S)-3-((S)-sec-butyl)-N-((S)-1-(2-hydroxyethyl)pyrrolidin-3-yl)-2-oxo-1,2,3,5-tetrahydro-4H-benzo[e][1,4]diazepine-4-carboxamide] | 0.54
32 | CC[C@H](C)[C@H]1C(=O)Nc2ccccc2CN1C(=O)NC1CCNCC1 [Compound 142, (S)-3-((S)-sec-butyl)-2-oxo-N-(piperidin-4-yl)-1,2,3,5-tetrahydro-4H-benzo[e][1,4]diazepine-4-carboxamide] | 0.36
33 | CC[C@H](C)[C@H]1C(=O)Nc2ccccc2CN1C(=O)N[C@@H]1CCN(C)C1 [Compound 143, (S)-3-((S)-sec-butyl)-N-((R)-1-methylpyrrolidin-3-yl)-2-oxo-1,2,3,5-tetrahydro-4H-benzo[e][1,4]diazepine-4-carboxamide] | 0.35
34 | CC[C@H](C)[C@H]1C(=O)Nc2ccccc2CN1C#N [Compound 145, (S)-3-((S)-sec-butyl)-2-oxo-1,2,3,5-tetrahydro-4H-benzo[e][1,4]diazepine-4-carbonitrile] | 0.50
35 | CC[C@H](C)[C@H]1C(=O)Nc2ccccc2CN1C(=N)NO [Compound 146, (S)-3-((S)-sec-butyl)-N-hydroxy-2-oxo-1,2,3,5-tetrahydro-4H-benzo[e][1,4]diazepine-4-carboximidamide] | 0.30
